{"source": "patent US10377763B2", "about": "“Morphinan derivative and medical usage thereof” (UNIVERSITY OF TSUKUBA, priority 2015, dated 2019)", "key": {"[1]": {"target": "human OX1R (Homo sapiens (Human), UniProt O43613)", "sequence (O43613 whole entry)": "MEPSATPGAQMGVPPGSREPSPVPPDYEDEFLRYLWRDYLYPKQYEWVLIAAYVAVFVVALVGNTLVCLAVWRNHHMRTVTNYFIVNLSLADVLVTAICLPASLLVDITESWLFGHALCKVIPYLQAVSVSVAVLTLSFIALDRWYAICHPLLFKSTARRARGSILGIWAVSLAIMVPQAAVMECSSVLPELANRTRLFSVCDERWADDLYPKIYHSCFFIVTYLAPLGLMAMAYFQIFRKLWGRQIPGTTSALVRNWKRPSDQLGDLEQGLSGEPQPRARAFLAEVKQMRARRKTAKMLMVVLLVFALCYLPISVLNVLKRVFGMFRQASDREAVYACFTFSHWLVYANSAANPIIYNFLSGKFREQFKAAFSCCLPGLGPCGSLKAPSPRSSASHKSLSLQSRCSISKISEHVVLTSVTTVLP", "assay": "Measurement of antagonistic activity against orexin receptors (intracellular calcium, CHOOX1R cells)", "assay_type": "cell-based", "details": "for antagonistic activity against human OX1 receptor (in words): summary of Table 6", "procedure": "(§1) The Chinese hamster ovary (CHO) cell lines CHOOX1R and CHOOX2R were established by modifying CHO cells to constantly express the NFAT-luciferase gene and either the human OX1R or human OX2R gene. Those cells were plated at 10,000 cells/well in 96-well multiplates with DMEM (manufactured by Sigma-Aldrich Co. LLC) supplemented with 5% FBS (manufactured by Thermo Scientific Inc.) and incubated at 37° C. and 5% CO2 for 48 hours. After removal of the medium, 100 μL of an assay buffer (20 mM HEPES (manufactured by Sigma-Aldrich Co. LLC), Hank's balanced salt solution (manufactured by Gibco), 0.1% BSA (manufactured by Sigma-Aldrich Co. LLC), 2.5 mM probenecid acid (manufactured by Wako Pure Chemical Industries, Ltd.), pH 7.4) containing 5 μM Fura-2AM (manufactured by Cayman Chemical Co.) was added to each well, and incubated at 37° C. and 5% CO2 for 60 minutes. After removal of the buffer containing Fura-2AM, 75 μL of the assay buffer was added to each well. Then, […] of the assay buffer containing a test compound at various concentrations and OX-A (manufactured by Peptide Institute, Inc.) was added to start the reaction. The change in intracellular calcium ion concentration induced by the reaction was evaluated by the ratio of fluorescent intensities, which were measured at a wavelength of 510 nm based on the two wavelength excitation approach using FDSS 7000 (manufactured by Hamamatsu Photonics K.K.) with fluorescence excitation at 340 nm and 380 nm. A concentration-response curve on the antagonistic activity was plotted from the values of maximal fluorescent intensity ratio determined when various concentrations of a test compound were added in the presence of […] of OX-A, where a value of maximal fluorescent intensity ratio determined by adding 300 pM of OX-A alone corresponds to 100% and a value of maximal fluorescent intensity ratio determined by adding the assay buffer alone corresponds to 0%. Based on the resulting non-linear regression curve, the 50% maximal inhibitory concentration (IC50) was calculated. Each test compound was dissolved in DMSO to a concentration of 10 mM (the final concentration of DMSO was 1%), and then diluted with the assay buffer to give a final concentration of 3.0×10^−10 M to 1.0×10^−5 M (a common ratio of 3), while OX-A was diluted to a final concentration of 300 pM. The experiment was performed in quadruplicate plates, and the results of the four independent measurements were averaged to give the value of each reaction, and then the IC50 of a sample was calculated. If the sample number was 2 or more, the averaged IC50 was used."}, "[2]": {"target": "human OX2R (Homo sapiens (Human), UniProt O43614)", "sequence (O43614 whole entry)": "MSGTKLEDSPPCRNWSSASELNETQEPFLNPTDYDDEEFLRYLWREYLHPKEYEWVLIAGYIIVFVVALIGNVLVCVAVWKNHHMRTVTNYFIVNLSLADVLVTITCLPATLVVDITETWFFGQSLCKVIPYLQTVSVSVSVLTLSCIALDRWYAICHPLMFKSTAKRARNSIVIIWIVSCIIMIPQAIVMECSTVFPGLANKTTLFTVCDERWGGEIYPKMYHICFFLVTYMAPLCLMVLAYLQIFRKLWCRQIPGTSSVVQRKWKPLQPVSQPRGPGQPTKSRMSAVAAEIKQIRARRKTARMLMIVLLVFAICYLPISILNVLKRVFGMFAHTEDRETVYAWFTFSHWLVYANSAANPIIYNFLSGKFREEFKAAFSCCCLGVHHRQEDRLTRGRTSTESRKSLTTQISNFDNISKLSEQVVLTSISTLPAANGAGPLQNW", "assay": "Measurement of antagonistic activity against orexin receptors (intracellular calcium, CHOOX2R cells)", "assay_type": "cell-based", "procedure": "as §1"}, "[3]": {"system": "male ICR mice with morphine physical dependence", "assay": "Evaluation of the prophylactic effect on drug dependence (naloxone-induced withdrawal syndrome in morphine-dependent mice)", "assay_type": "in vivo", "details": "10 mg/kg repeatedly with morphine Day 1-5, naloxone 3 mg/kg s.c.", "procedure": "Increasing doses of morphine hydrochloride dissolved in saline were administered subcutaneously to 7-week-old male ICR mice twice daily (dosing interval: about 12 hours) for four days (dose: Day 1, 8 mg/kg followed by 15 mg/kg; Day 2, 20 mg/kg followed by 25 mg/kg; Day 3, 30 mg/kg followed by 35 mg/kg; Day 4, 40 mg/kg followed by 45 mg/kg). On Day 1 to Day 4, the mice were administered intraperitoneally with the compound of Example 45 (Compound 26) at 10 mg/kg or saline, the solvent of the compound, 30 minutes prior to every first administration of morphine hydrochloride. On Day 5, the mice were administered subcutaneously with the compound of Example 45 (Compound 26) at 10 mg/kg or saline, and 30 minutes later administered subcutaneously with morphine hydrochloride at 45 mg/kg as the final dose. Two hours after the final administration of morphine hydrochloride, the mice were administered subcutaneously with naloxone hydrochloride at 3 mg/kg; symptoms of withdrawal syndrome (jumping, body shake, ptosis, forepaw tremor, rearing, body weight loss, and diarrhea) which appeared 60 minutes after administration of naloxone hydrochloride were observed. Body weight was measured before and every 15 minutes after naloxone hydrochloride administration. Moreover, diarrhea was graded according to a three-point scoring system based on the appearance of feces: normal feces (Normal), loose feces (Slightly), and liquid feces or liquid diarrhea (Severe). The other symptoms of withdrawal syndrome were evaluated based on the presence or absence of their manifestation. Statistical analysis was performed using chi square test and two-way analysis of variance and setting the significance level at p<0.05."}, "[4]": {"system": "male ICR mice with morphine physical dependence", "assay": "Evaluation of the therapeutic effect on drug dependence (naloxone-induced withdrawal syndrome in morphine-dependent mice)", "assay_type": "in vivo", "details": "10 mg/kg i.p. 30 minutes prior to naloxone 3 mg/kg s.c., after repeated morphine", "procedure": "Increasing doses of morphine hydrochloride dissolved in saline were administered subcutaneously to 7-week-old male ICR mice twice daily (dosing interval: about 12 hours) for four days (dose: Day 1, 8 mg/kg followed by 15 mg/kg; Day 2, 20 mg/kg followed by 25 mg/kg; Day 3, 30 mg/kg followed by 35 mg/kg; Day 4, 40 mg/kg followed by 45 mg/kg). On Day 5, the mice were administered subcutaneously with morphine hydrochloride at 45 mg/kg as the final dose. Two hours after the final administration of morphine hydrochloride, the mice were administered subcutaneously with naloxone hydrochloride at 3 mg/kg. The mice were administered intraperitoneally with the compound of Example 45 (Compound 26) at 10 mg/kg or saline, the solvent of the compound, 30 minutes prior to the administration of naloxone hydrochloride. Symptoms of withdrawal syndrome (jumping, body shake, ptosis, forepaw tremor, rearing, body weight loss, and diarrhea) which appeared 60 minutes after the last dose of naloxone hydrochloride were observed. Body weight was measured before and every 15 minutes after naloxone hydrochloride administration. Moreover, diarrhea was graded according to a three-point scoring system based on the appearance of feces: normal feces, loose feces, and liquid feces or liquid diarrhea. The other symptoms of withdrawal syndrome were evaluated based on the presence or absence of their manifestation. Statistical analysis was performed using chi square test and two-way analysis of variance and setting the significance level at p<0.05."}, "[5]": {"details": "CHOOX1R cells, 300 pM OX-A, Fura-2 calcium, read-out: OX1 (IC50)"}, "[6]": {"details": "CHOOX2R cells, 300 pM OX-A, Fura-2 calcium, read-out: OX2 (IC50)"}}, "note": "Several values for one entry are separate records, joined by “and”; a condition that tells them apart may be missing. Identical values can stand only once. Like-named read-outs stand apart in the source and are kept apart here.", "data": [{"smiles": "COc1ccc2c3c1O[C@H]1[C@H](N(C)C(=O)Nc4ccccc4)CC[C@@]4(O)[C@@H](C2)N(S(=O)(=O)c2ccccc2)CC[C@]314", "note": "[Example 41]", "values": [{"measurement": "IC50", "setting": "[1]; [5]", "result": 159, "unit": "nM"}, {"measurement": "antagonistic activity against human OX1 receptor (in words)", "setting": "[1]", "result": "potent and selective antagonistic activity"}, {"measurement": "IC50", "setting": "[2]; [6]", "result": "> 10000", "unit": "nM"}]}, {"smiles": "COc1ccc2c3c1O[C@H]1[C@H](N(C)C(=O)NCc4ccccc4)CC[C@@]4(O)[C@@H](C2)N(S(=O)(=O)c2ccccc2)CC[C@]314", "note": "[Example 42]", "values": [{"measurement": "IC50", "setting": "[1]; [5]", "result": 688, "unit": "nM"}, {"measurement": "antagonistic activity against human OX1 receptor (in words)", "setting": "[1]", "result": "potent and selective antagonistic activity"}, {"measurement": "IC50", "setting": "[2]; [6]", "result": "> 10000", "unit": "nM"}]}, {"smiles": "COc1ccc2c3c1O[C@H]1[C@H](N(C)C(=O)/C=C/c4ccccn4)CC[C@@]4(O)[C@@H](C2)N(S(=O)(=O)c2ccccc2N(C)C)CC[C@]314", "note": "[Example 45, (E)-N-[(4R,4aS,7R,7aR,12bS)-3-{[2-(dimethylamino)phenyl]sulfonyl}-4a-hydroxy-9-methoxy-2,3,4,4a,5,6,7,7a-octahydro-1H-4,12-methanobenzofuro[3,2-e]isoquinolin-7-yl]-N-methyl-3-(pyridin-2-yl)acrylamide]", "values": [{"measurement": "Body shake: number of animals with withdrawal syndrome/total number of animals", "setting": "[3]", "result": "6/8"}, {"measurement": "Diarrhea score Liquid feces or liquid diarrhea (number of corresponding animals/total number of animals)", "setting": "[3]", "result": "2/8"}, {"measurement": "Diarrhea score Loose feces (number of corresponding animals/total number of animals)", "setting": "[3]", "result": "4/8"}, {"measurement": "Diarrhea score Normal feces (number of corresponding animals/total number of animals)", "setting": "[3]", "result": "2/8"}, {"measurement": "Forepaw tremor: number of animals with withdrawal syndrome/total number of animals", "setting": "[3]", "result": "6/8"}, {"measurement": "Jumping: number of animals with withdrawal syndrome/total number of animals", "setting": "[3]", "result": "statistically significantly suppressed and 1/8*"}, {"measurement": "Ptosis: number of animals with withdrawal syndrome/total number of animals", "setting": "[3]", "result": "tendency to suppress and 4/8"}, {"measurement": "Rearing: number of animals with withdrawal syndrome/total number of animals", "setting": "[3]", "result": "tendency to suppress and 5/8"}, {"measurement": "diarrhea (withdrawal syndrome, in words)", "setting": "[3]", "result": "statistically significantly suppressed"}, {"measurement": "body weight loss (withdrawal syndrome)", "setting": "[3]; FIG. 1", "result": "statistically significantly suppressed"}, {"measurement": "IC50", "setting": "[1]", "result": 3.61, "unit": "nM"}, {"measurement": "antagonistic activity against human OX1 receptor (in words)", "setting": "[1]", "result": "potent and selective antagonistic activity"}, {"measurement": "Body shake: number of animals with withdrawal syndrome/total number of animals", "setting": "[4]", "result": "7/13"}, {"measurement": "Diarrhea score Liquid feces or liquid diarrhea (number of corresponding animals/total number of animals)", "setting": "[4]", "result": "3/13"}, {"measurement": "Diarrhea score Loose feces (number of corresponding animals/total number of animals)", "setting": "[4]", "result": "8/13"}, {"measurement": "Diarrhea score Normal feces (number of corresponding animals/total number of animals)", "setting": "[4]", "result": "2/13"}, {"measurement": "Forepaw tremor: number of animals with withdrawal syndrome/total number of animals", "setting": "[4]", "result": "11/13"}, {"measurement": "Jumping: number of animals with withdrawal syndrome/total number of animals", "setting": "[4]", "result": "statistically significantly suppressed and 2/13**"}, {"measurement": "Ptosis: number of animals with withdrawal syndrome/total number of animals", "setting": "[4]", "result": "tendency to suppress and 3/13"}, {"measurement": "Rearing: number of animals with withdrawal syndrome/total number of animals", "setting": "[4]", "result": "11/13"}, {"measurement": "diarrhea (withdrawal syndrome, in words)", "setting": "[4]", "result": "statistically significantly suppressed"}, {"measurement": "body weight loss (withdrawal syndrome)", "setting": "[4]; FIG. 2", "result": "statistically significantly suppressed"}, {"measurement": "IC50", "setting": "[2]", "result": "> 10000", "unit": "nM"}]}]}
